Source: US10899759B2, “Positive allosteric modulators of the muscarinic acetylcholine receptor M1” (Vanderbilt University, priority 2016, dated 2021)

Experiments:
[1] = Brain tissue distribution study in Sprague-Dawley rat (IV cassette); type: in vivo; conditions: male, IV cassette 0.2 mg/kg per compound, 0.25 h post-dose; for Kp uu at 0.25 h: brain/plasma (unbound), unbound distribution partition coefficient; for Kp at 0.25 h: brain/plasma, distribution partition coefficient
Protocol: The plasma protein and nonspecific brain homogenate binding of certain compounds were determined in plasma or brain homogenate using contemporary equilibrium dialysis and employing HTDialysis™ Teflon dialysis chambers and cellulose membranes (MWCO 12-14 K) from HTDialysis (Gales Ferry, Conn.). Brain tissue homogenate was prepared by diluting one volume whole brain tissue with three volumes of phosphate buffer (pH 7.4). The mixture was then subjected to mechanical homogenation employing a Mini-Beadbeater™ and 1.0 mm Zirconia/Silica Beads from BioSpec Products (Bartlesville, Okla.). Plasma or brain homogenate was fortified with test article and mixed thoroughly for a final concentration of 5 μM for plasma and 1 μM for brain homogenate. Subsequently, 100 μL of the plasma- or brain homogenate-compound mixture was transferred to one side of a dialysis chamber with an accompanying 100 μL of phosphate buffer (pH 7.4) in the opposite side of the chamber. The plate block was sealed and incubated for 6 hours (37° C.) with shaking. Upon completion, aliquots from each chamber were matrix-matched with either plasma or brain homogenate (1:1, buffer side) or buffer (1:1, plasma or brain homogenate side) in a new 96-well plate, at which time the proteins and cell debris/membranes (for brain homogenate) were precipitated with ice-cold acetonitrile containing an internal standard (carbamazepine, 50 nM). The plate was centrifuged (3000 rcf, 10 min) and supernatants diluted (1:1, v/v) via transfer into a fresh 96-well plate containing deionized H2O; the plate was sealed in preparation for LC/MS/MS bioanalysis. The assay was performed in triplicate for each compound.
A cassette of compounds (n=5/cassette) were formulated from 10 mmol L^−1 solutions prepared in DMSO. In order to reduce the absolute volume of DMSO that was administered, the compounds were combined and diluted with ethanol and PEG 400 to achieve a final concentration of 0.4 mg mL^−1 for each compound (2 mg mL^−1 total) administered in each cassette; the maximal dosing volume was 0.5 mL kg^−1 of each animal's body mass. The final dosing solutions consisted of approximately 10% ethanol, 40% PEG400, and 50% DMSO (v/v). Each cassette dose was administered IV via the jugular vein to one dual-cannulated (carotid artery and jugular vein) adult male Sprague-Dawley rat, each weighing between 250 and 350 g (Harlan, Indianapolis, Ind.) for a final dose of 0.2 mg kg^−1 per compound. Whole blood and dissected whole brains were collected at the time of euthanization (0.25 h post-dose), with the whole brain being removed and thoroughly rinsed with cold phosphate-buffered saline prior to freezing on dry ice. […]

C57Bl/6 mice = assay: Behavioral manifestations of seizure activity (modified Racine scoring); type: in vivo; conditions: 100 mg/kg i.p., monitored up to 3 hr for seizure behavior
Protocol: To evaluate induction of behavioral manifestation of seizure activity, C57Bl/6 mice received administration of vehicle or 100 mg/kg M1 PAM. Compounds were formulated in 10% Tween 80 (pH 7.0) at a concentration of 10 mg/ml and injected i.p. (n=3). Animals were monitored continuously and scored for behavioral manifestations of seizure activity at 5, 10, 15 and 30 min, and 1 and 3 hr. Behavioral manifestations of seizures were scored using a modified Racine scoring system (R. J. Racine, Modification of seizure activity by electrical stimulation. II. Motor seizure. Electroencephalogr. Clin. Neurophysiol. 32, 281 (March, 1972)). Briefly, a score of 0 represents no behavior alterations; score 1, immobility, mouth and facial movements, or facial clonus; score 2, head nodding, tail extension; score 3, forelimb clonus, repetitive movements; score 4, rearing and tonic clonic seizure; and score 5, continuous rearing and falling, severe generalized tonic clonic seizure.

human mAChR M1 = biological target: T1, human mAChR M1 (Homo sapiens, UniProt P11229); assay: mAChR M1 cell-based functional assay (calcium mobilization, Fluo-4, FDSS); conditions: CHO-K1 cells stably expressing hM1; for Emax: EC20 acetylcholine response, read-out: Human M1 Emax; for EC50: positive allosteric modulator activity as increase in the EC20 acetylcholine response
T1 construct: host or cells: CHO-K1
T1 sequence (P11229 1-460): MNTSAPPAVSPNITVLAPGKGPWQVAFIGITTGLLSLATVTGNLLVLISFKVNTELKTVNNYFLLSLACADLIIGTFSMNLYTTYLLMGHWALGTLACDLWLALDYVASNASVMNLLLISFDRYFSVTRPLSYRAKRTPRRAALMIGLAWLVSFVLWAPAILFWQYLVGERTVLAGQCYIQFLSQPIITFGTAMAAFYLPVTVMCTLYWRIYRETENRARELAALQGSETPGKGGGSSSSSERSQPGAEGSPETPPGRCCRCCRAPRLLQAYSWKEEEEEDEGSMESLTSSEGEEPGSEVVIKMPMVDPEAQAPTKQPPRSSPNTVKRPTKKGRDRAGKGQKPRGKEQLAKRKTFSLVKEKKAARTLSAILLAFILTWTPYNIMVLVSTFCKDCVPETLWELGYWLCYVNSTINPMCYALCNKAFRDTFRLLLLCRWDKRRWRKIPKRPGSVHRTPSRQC
Outline: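 CHO-K1 cells stably expressing muscarinic receptor, loaded with Fluo-4; 11-point 1:3 compound series added and calcium flux read over 300 s at 1 Hz. Agonism from direct calcium rise, PAM activity as potentiation of EC20 acetylcholine, antagonism as decrease of EC80 acetylcholine; four-parameter logistic fits.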

SMILES	Kp uu at 0.25 h [1]	Kp at 0.25 h [1]	Adverse Effect in mice (100 mpk, i.p.) (C57Bl/6 mice)	Emax (human mAChR M1) [%]	EC50 (human mAChR M1) [nM]
Cc1nc(-c2ccc(Cc3cc(C(=O)NC4CCOCC4)nc4c3ccn4C)cc2)co1 [Compound 53, 1-methyl-4-[[4-(2-methyloxazol-4-yl)phenyl]methyl]-N-tetrahydropyran-4-yl-pyrrolo[2,3-b]pyridine-6-carboxamide]	0.85	0.51	No	86.4	390
Cn1cc(-c2ccc(Cc3cc(C(=O)NC4CCOCC4)nc4c3ccn4C)cn2)cn1 [Compound 47, 1-methyl-4-[[6-(1-methylpyrazol-4-yl)-3-pyridyl]methyl]-N-tetrahydropyran-4-yl-pyrrolo[2,3-b]pyridine-6-carboxamide]	0.32	0.28	No	83.8	180
